Earlier results, collected in article PMC10386414 (Molecules, 2023).

Columns and labels:
[1] = test system: MOR; set-up: method as in PMID 17625813; settings: receptor binding assay
[2] = earlier work, reference not given
[3] = test system: MOR; set-up: method as in PMID 33479684; settings: cAMP assay, acted as a partial agonist
[4] = set-up: method as in PMID 37381112; settings: in vivo
[5] = set-up: method as in PMID 37381112; settings: depending on the animal species used and the pain stimulus

SMILES | MOR affinity [1] | potency in vivo relative to morphine [2] | %Emax (efficacy) [3] | EC50 ([3]; read-out: EC50 (potency)) | locomotor effects [4] | antinociceptive activity [5]
Oc1cccc(C23CCCC(C2O)N(CCc2ccccc2)CC3)c1 [1R,5R,9S-OH compound] | sub-nanomolar | about 500 times |  |  |  | 
CCC[C@H]1[C@@H]2CCC[C@@]1(c1cccc(O)c1)CCN2CCc1ccccc1 [compound 16] |  |  | 45% | 1.42 nM | unlike morphine in its locomotor effects | some antinociceptive activity
